Columns and labels:
[1] = FIGS. 4, 6 and 8 of WO 2014/014835 A2; cited from earlier work
[2] = TGA curves of WO 2014/014835 A2; cited from earlier work
[3] = Powder dissolution in phosphate buffer pH 6 at 25° C., concentration by HPLC; type: physicochemical; settings: phosphate buffer pH 6, 25° C.
Experimental: Powder dissolution experiments were carried out in phosphate buffer pH 6 at 25° C. for form A of roxadustat and the L-proline co-crystal of the present invention. The respective concentrations were determined by HPLC at a wavelength of 254 nm.

[4] = Stability against pressure (IR press, PXRD); type: physicochemical; settings: pressed to a pellet at about 100 kN, ground again
Source text: The pellet was ground again in order to obtain a powder, which was then investigated by PXRD.

[5] = Stability against mechanical stress (dry grinding, PXRD); type: physicochemical; settings: dry ground 20 minutes, 25 vibrations per second
Experimental: A 1.5 mL grinding jar with one ball (5 mm diameter) both made of stainless steel was fed with about 70 mg sample and ground for 20 minutes at a frequency of 25 vibrations per second.

[6] = Stability against temperature and moisture (40° C., 75% RH, PXRD); type: physicochemical; settings: 75% relative humidity, 7 days
[7] = Thermogravimetric analysis (mass loss on heating); type: physicochemical; settings: 10 K/min
Experimental: The sample (16.28 mg) was heated in a 100 microliter aluminum pan closed with an aluminum lid. The lid was automatically pierced at the beginning of the measurement. The sample was heated from 25 to 250° C. at a rate of 10 K/min. Nitrogen (purge rate 50 mL/min) was used as purge gas.
For example mass losses of only about 0.1 weight % up to a temperature of about 180° C., about 0.2 weight % up to a temperature of about 190° C. and about 0.3 weight % up to a temperature of about 200° C. were observed, which further proves the presence of an anhydrous and non-solvated co-crystal.

[8] = Differential scanning calorimetry (thermal stability); type: physicochemical; settings: 25 to 250° C. at 10 K/min
Experimental: The roxadustat L-proline co-crystal according to the present invention was investigated by DSC, which was performed on a Mettler Polymer DSC R instrument. The sample (2.72 mg) was heated in a 40 microliter aluminium pan with a pierced aluminium lid from 25 to 250° C. at a rate of 10 K/min. Nitrogen (purge rate 50 mL/min) was used as purge gas.

## Cc1nc(C(=O)NCC(=O)O)c(O)c2ccc(Oc3ccccc3)cc12.Cc1nc(C(=O)NCC(=O)O)c(O)c2ccc(Oc3ccccc3)cc12.O [form B]
[1]
  phase transformation during DSC experiments: at least partially transform to form A
[2]
  solvent/water loss upon heating (TGA): readily lose their solvents/water upon heating

## Cc1nc(C(=O)NCC(=O)O)c(O)c2ccc(Oc3ccccc3)cc12 [roxadustat form A, [(4-hydroxy-1-methyl-7-phenoxyisoquinoline-3-carbonyl)amino]acetic acid, reference compound]
[3]; 1 min
  Concentration roxadustat (dissolution profile): 30 µg/mL
[3]; 5 min
  Concentration roxadustat (dissolution profile): 50 µg/mL
[3]; 15 min
  Concentration roxadustat (dissolution profile): 60 µg/mL
[3]; 30 min
  Concentration roxadustat (dissolution profile): 50 µg/mL
[3]; 60 min
  Concentration roxadustat (dissolution profile): 60 µg/mL
[3]; 180 min
  Concentration roxadustat (dissolution profile): 70 µg/mL

## Cc1nc(C(=O)NCC(=O)O)c(O)c2ccc(Oc3ccccc3)cc12 [roxadustat L-proline co-crystal]
[4]
  phase changes according to powder X-ray diffraction: no phase changes occured
[5]
  phase changes according to powder X-ray diffraction: no phase changes occured
[6]
  phase changes according to powder X-ray diffraction: no phase changes occurred
[7]; up to about 180° C.
  TGA mass loss: about 0.1 weight %
[7]; up to about 190° C.
  TGA mass loss: about 0.2 weight %
[7]; up to about 200° C.
  TGA mass loss: about 0.3 weight %
[8]
  thermal events in DSC until melting: neither phase changes nor desolvation events are detectable until the sample melts
[3]
  time after which the complex falls apart in aqueous solution into its pure components: about 5 minutes
[3]; 1 min, listed as roxadustat L-prolin co-crystal
  Concentration roxadustat (dissolution profile): 660 µg/mL
[3]; 5 min, listed as roxadustat L-prolin co-crystal
  Concentration roxadustat (dissolution profile): 30 µg/mL
[3]; 15 min, listed as roxadustat L-prolin co-crystal
  Concentration roxadustat (dissolution profile): 20 µg/mL
[3]; 30 min, listed as roxadustat L-prolin co-crystal
  Concentration roxadustat (dissolution profile): 40 µg/mL
[3]; 60 min, listed as roxadustat L-prolin co-crystal
  Concentration roxadustat (dissolution profile): 100 µg/mL
[3]; 180 min, listed as roxadustat L-prolin co-crystal
  Concentration roxadustat (dissolution profile): 90 µg/mL

Source: patent US11192860B2, “Co-crystal of an orally available HIF prolyl hydroxylase inhibitor” (Sandoz AG, priority 2017, dated 2021)
